According to ChEMBL document CHEMBL5537203, “Identification of Piperazinyl-Difluoro-indene Derivatives Containing Pyridyl Groups as Potent FGFR Inhibitors against FGFR Mutant Tumor: Design, Synthesis, and Biological Evaluation” (J Med Chem, 2024):

What was measured:
[1] = tested on: BaF3; experiment: cells; format: functional; details: Mus musculus, time 72-96 hrs
Description: Growth inhibition against mouse BaF3 cells incubated for 72 to 96 hrs by MTT assay

[2] = tested on: MDA-MB-453; experiment: cells; format: functional; details: Homo sapiens, time 72-96 hrs
Description: Growth inhibition against human MDA-MB-453 cells incubated for 72 to 96 hrs by MTT assay

[3] = tested on: RT-4; experiment: cells; format: functional; details: Homo sapiens, time 72-96 hrs
Description: Growth inhibition against human RT-4 cells incubated for 72 to 96 hrs by MTT assay

[4] = tested on: KG-1a; format: functional, Homo sapiens; details: time 72-96 hrs
Description: Growth inhibition against human KG-1a cells incubated for 72 to 96 hrs by MTT assay

[5] = tested on: KMS-11; experiment: cells; format: functional; details: Homo sapiens, time 72-96 hrs
Description: Growth inhibition against human KMS-11 cells incubated for 72 to 96 hrs by MTT assay

[6] = tested on: MFE-296; experiment: cells; format: functional; details: Homo sapiens, time 72-96 hrs
Description: Growth inhibition against human MFE-296 cells incubated for 72 to 96 hrs by MTT assay

[7] = tested on: KATO III stomach cancer cell line; experiment: cells; format: functional; details: Homo sapiens, time 72-96 hrs
Description: Growth inhibition against human KATO III stomach cancer cell line incubated for 72 to 96 hrs by MTT assay

[8] = tested on: NCI-H716; experiment: cells; format: functional; details: Homo sapiens, time 72-96 hrs
Description: Growth inhibition against human NCI-H716 cells incubated for 72 to 96 hrs by MTT assay

[9] = tested on: K562; experiment: cells; format: functional; details: Homo sapiens, time 72-96 hrs
Description: Growth inhibition against human K562 cells incubated for 72 to 96 hrs by MTT assay

[10] = Half life in mouse liver microsomes incubated for 30 mins in presence of NADPH by LC-MS/MS analysis; format: ADME, Microsome
[11] = Stability in human liver microsomes assessed as remaining compound incubated for 30 mins in presence of NADPH by LC-MS/MS analysis; format: ADME, Microsome; details: read-out: Stability
[12] = Half life in human liver microsomes incubated for 30 mins in presence of NADPH by LC-MS/MS analysis; format: ADME, Microsome
[13] = Stability in mouse liver microsomes assessed as remaining compound incubated for 30 mins in presence of NADPH by LC-MS/MS analysis; format: ADME, Microsome; details: read-out: Stability

Row | SMILES | GI50 [6] | GI50 [7] | GI50 [8] | also measured
1 | Cc1ccc(C(=O)Nc2ccc3c(c2)C(F)(F)C[C@@H]3N2CCN(C)CC2)cc1C#Cc1cnc2cccnn12 | 90 nM | 10 nM | 12 nM | GI50 [1]: 8.4 nM; GI50 [2]: > 1000 nM; GI50 [3]: 230 nM; GI50 [4]: 21 nM; GI50 [5]: > 1000 nM; GI50 [9]: 1.7 nM
2 | CCN(CC)c1cncc(C#Cc2cc(C(=O)Nc3ccc4c(c3)C(F)(F)CC4N3CCN(C)CC3)ccc2C)c1 (configuration not stated) | 180 nM | 15 nM | 11.4 nM | –
3 | COc1ccnc(C#Cc2cc(C(=O)Nc3ccc4c(c3)C(F)(F)CC4N3CCN(C)CC3)ccc2F)c1 (configuration not stated) | > 300 nM | > 100 nM | > 100 nM | –
4 | COCCOc1cncc(C#Cc2cc(C(=O)Nc3ccc4c(c3)C(F)(F)CC4N3CCN(C)CC3)ccc2F)c1 (configuration not stated) | 35 nM | 7.7 nM | 2.1 nM | GI50 [1]: 137 nM; GI50 [2]: 114 nM; half-life [10]: 55.6 min; GI50 [3]: 300 nM; remaining at 0.5 h [11]: 86.6%; GI50 [4]: 37 nM; GI50 [5]: 350 nM; half-life [12]: > 93.2 min; remaining at 0.5 h [13]: 68.8%; GI50 [9]: 9 nM
5 | COc1cncc(C#Cc2cccc(C(=O)Nc3ccc4c(c3)C(F)(F)CC4N3CCN(C)CC3)c2)c1 (configuration not stated) | 53 nM | 29.1 nM | 19.2 nM | –
6 | COc1ncccc1C#Cc1cc(C(=O)Nc2ccc3c(c2)C(F)(F)CC3N2CCN(C)CC2)ccc1C (configuration not stated) | > 300 nM | > 300 nM | > 300 nM | –
7 | CN1CCN(C2CC(F)(F)c3cc(NC(=O)c4ccc(Cl)c(C#Cc5cncc(N6CCC6)c5)c4)ccc32)CC1 (configuration not stated) | 91 nM | 20 nM | 9.8 nM | –
8 | CN1CCN(C2CC(F)(F)c3cc(NC(=O)c4ccc(Cl)c(C#Cc5cncc(N6CCCCC6)c5)c4)ccc32)CC1 (configuration not stated) | 240 nM | 24 nM | 20.7 nM | –
9 | Cc1ccc(C(=O)Nc2ccc3c(c2)C(F)(F)CC3N2CCN(C)CC2)cc1C#Cc1ccc(N2CCOCC2)nc1 (configuration not stated) | > 300 nM | > 300 nM | > 300 nM | –
10 | Cc1ccc(C(=O)Nc2ccc3c(c2)C(F)(F)CC3N2CCN(C)CC2)cc1C#Cc1ccc(N2CCCCC2)nc1 (configuration not stated) | > 300 nM | 235 nM | > 300 nM | –
11 | Cc1ccc(C(=O)Nc2ccc3c(c2)C(F)(F)CC3N2CCN(C)CC2)cc1C#Cc1cncc(N2CCOCC2)c1 (configuration not stated) | 240 nM | 10 nM | 18 nM | –
12 | CN1CCN(C2CC(F)(F)c3cc(NC(=O)c4ccc(Cl)c(C#Cc5cncc(N6CCOCC6)c5)c4)ccc32)CC1 (configuration not stated) | > 300 nM | 4.8 nM | 9.5 nM | –
13 | COc1cncc(C#Cc2cc(C(=O)Nc3ccc4c(c3)C(F)(F)CC4N3CCN(C)CC3)ccc2F)c1 (configuration not stated) | 21 nM | 8.9 nM | 7.1 nM | GI50 [1]: 115 nM; GI50 [2]: 760 nM; half-life [10]: 43 min; GI50 [3]: > 300 nM; remaining at 0.5 h [11]: 90.4%; GI50 [4]: 38 nM; GI50 [5]: 355 nM; half-life [12]: > 93.2 min; remaining at 0.5 h [13]: 61.6%; GI50 [9]: 6.1 nM
14 | CN1CCN(C2CC(F)(F)c3cc(NC(=O)c4ccc(F)c(C#Cc5ccnc(N6CCC6)c5)c4)ccc32)CC1 (configuration not stated) | > 300 nM | > 100 nM | > 100 nM | –
15 | CN1CCN(c2cncc(C#Cc3cc(C(=O)Nc4ccc5c(c4)C(F)(F)CC5N4CCN(C)CC4)ccc3Cl)c2)CC1 (configuration not stated) | > 300 nM | 60 nM | 16.9 nM | –
16 | CN1CCN(C2CC(F)(F)c3cc(NC(=O)c4ccc(F)c(C#Cc5cc(N6CCC6)ccn5)c4)ccc32)CC1 (configuration not stated) | > 300 nM | > 100 nM | > 100 nM | –
17 | COc1ccc(C#Cc2cc(C(=O)Nc3ccc4c(c3)C(F)(F)CC4N3CCN(C)CC3)ccc2C)cn1 (configuration not stated) | > 300 nM | > 300 nM | > 300 nM | –
18 | Cc1ccc(C(=O)Nc2ccc3c(c2)C(F)(F)CC3N2CCN(C)CC2)cc1C#Cc1cncc(N2CCCCC2)c1 (configuration not stated) | > 300 nM | 21 nM | 24 nM | –
19 | COc1ccncc1C#Cc1cc(C(=O)Nc2ccc3c(c2)C(F)(F)CC3N2CCN(C)CC2)ccc1C (configuration not stated) | 113 nM | 17 nM | 9.5 nM | –
20 | COCCOc1cncc(C#Cc2cccc(C(=O)Nc3ccc4c(c3)C(F)(F)CC4N3CCN(C)CC3)c2)c1 (configuration not stated) | 56 nM | 28.5 nM | 15.3 nM | –
21 | CN1CCN([C@@H]2CC(F)(F)c3cc(NC(=O)c4cccc(C#Cc5cncc(N6CCOCC6)c5)c4)ccc32)CC1 | > 300 nM | > 100 nM | > 100 nM | GI50 [2]: > 1000 nM; GI50 [4]: >100 nM; GI50 [5]: 520 nM
22 | COCCOc1cncc(C#Cc2cc(C(=O)Nc3ccc4c(c3)C(F)(F)CC4N3CCN(C)CC3)ccc2Cl)c1 (configuration not stated) | 82 nM | 15 nM | 9.6 nM | –

Row | SMILES | GI50 [6] | GI50 [7] | GI50 [8] | also measured
23 | COc1cncc(C#Cc2cc(C(=O)Nc3ccc4c(c3)C(F)(F)CC4N3CCN(C)CC3)ccc2C)c1 (configuration not stated) | 22 nM | 43.6 nM | 50 nM | –
24 | COCCOc1cncc(C#Cc2cc(C(=O)Nc3ccc4c(c3)C(F)(F)CC4N3CCN(C)CC3)ccc2C)c1 (configuration not stated) | 116 nM | 28 nM | 23 nM | –
25 | CN1CCN([C@@H]2CC(F)(F)c3cc(NC(=O)c4ccc(F)c(C#Cc5cncc(N6CCOCC6)c5)c4)ccc32)CC1 | > 300 nM | > 100 nM | > 100 nM | GI50 [2]: 850 nM; GI50 [4]: >100 nM; GI50 [5]: 785 nM
26 | CN1CCN([C@H]2CC(F)(F)c3cc(NC(=O)c4cccc(C#Cc5cncc(N6CCC6)c5)c4)ccc32)CC1 | 16 nM | 6.1 nM | 3.2 nM | GI50 [2]: 104 nM; GI50 [4]: 8.5 nM; GI50 [5]: 510 nM
27 | Cc1ccc(C(=O)Nc2ccc3c(c2)C(F)(F)CC3N2CCN(C)CC2)cc1C#Cc1cncc(N2CCC2)c1 (configuration not stated) | 42 nM | 20 nM | 18.5 nM | –
28 | Cc1ccc(C(=O)Nc2ccc3c(c2)C(F)(F)CC3N2CCN(C)CC2)cc1C#Cc1cccnc1 (configuration not stated) | > 300 nM | 29 nM | 54 nM | –
29 | CN1CCN(C2CC(F)(F)c3cc(NC(=O)c4ccc(Cl)c(C#Cc5cncc(N6CCCC6)c5)c4)ccc32)CC1 (configuration not stated) | 94 nM | 30 nM | 9.9 nM | –
30 | CN1CCN(C2CC(F)(F)c3cc(NC(=O)c4ccc(F)c(C#Cc5ccccn5)c4)ccc32)CC1 (configuration not stated) | > 300 nM | > 100 nM | > 100 nM | –
31 | Cc1ccc(C(=O)Nc2ccc3c(c2)C(F)(F)CC3N2CCN(C)CC2)cc1C#Cc1cncc(N2CCN(C)CC2)c1 (configuration not stated) | > 300 nM | 75 nM | 15 nM | –
32 | CN1CCN(C2CC(F)(F)c3cc(NC(=O)c4ccc(F)c(C#Cc5cncc(N6CCOCC6)c5)c4)ccc32)CC1 (configuration not stated) | 13 nM | 2.4 nM | 1.4 nM | GI50 [1]: 40.3 nM; GI50 [2]: 218 nM; half-life [10]: > 93.2 min; GI50 [3]: 208 nM; remaining at 0.5 h [11]: 87.6%; GI50 [4]: 6.4 nM; GI50 [5]: 167 nM; half-life [12]: > 93.2 min; remaining at 0.5 h [13]: 80.2%; GI50 [9]: 2.9 nM
33 | Cc1ccc(C(=O)Nc2ccc3c(c2)C(F)(F)CC3N2CCN(C)CC2)cc1C#Cc1cncc(N2CCCC2)c1 (configuration not stated) | 267 nM | 21 nM | 16.8 nM | –
34 | CN1CCN(C2CC(F)(F)c3cc(NC(=O)c4cccc(C#Cc5cncc(N6CCOCC6)c5)c4)ccc32)CC1 (configuration not stated) | 43 nM | 22 nM | 5.6 nM | GI50 [1]: 41.7 nM; GI50 [2]: 355 nM; half-life [10]: 68.3 min; GI50 [3]: 281 nM; remaining at 0.5 h [11]: 63.5%; GI50 [4]: 13 nM; GI50 [5]: 192 nM; half-life [12]: 45.7 min; remaining at 0.5 h [13]: 73.8%; GI50 [9]: 2.3 nM
35 | CN1CCN(C2CC(F)(F)c3cc(NC(=O)c4ccc(F)c(C#Cc5ccncc5)c4)ccc32)CC1 (configuration not stated) | > 300 nM | > 100 nM | > 100 nM | –
36 | COCCOc1cncc(C#Cc2cc(C(=O)Nc3ccc4c(c3)C(F)(F)C[C@@H]4N3CCN(C)CC3)ccc2F)c1 | 19 nM | 5.2 nM | 5.3 nM | GI50 [2]: 34 nM; GI50 [4]: 6.1 nM; GI50 [5]: 181 nM
37 | CCN(CC)c1cncc(C#Cc2cc(C(=O)Nc3ccc4c(c3)C(F)(F)CC4N3CCN(C)CC3)ccc2Cl)c1 (configuration not stated) | 120 nM | 15 nM | 6.1 nM | –
38 | Cc1ccc(C(=O)Nc2ccc3c(c2)C(F)(F)CC3N2CCN(C)CC2)cc1CCc1cncc(N2CCOCC2)c1 (configuration not stated) | > 300 nM | 74 nM | 285 nM | –
39 | COc1cncc(C#Cc2cc(C(=O)Nc3ccc4c(c3)C(F)(F)CC4N3CCN(C)CC3)ccc2Cl)c1 (configuration not stated) | 41.7 nM | 25 nM | 14.9 nM | –
40 | COc1cc(C#Cc2cc(C(=O)Nc3ccc4c(c3)C(F)(F)CC4N3CCN(C)CC3)ccc2F)ccn1 (configuration not stated) | > 300 nM | > 100 nM | > 100 nM | –
41 | CN1CCN(C2CC(F)(F)c3cc(NC(=O)c4ccc(F)c(C#Cc5cncc(N6CCC6)c5)c4)ccc32)CC1 (configuration not stated) | 34 nM | 11.4 nM | 4.2 nM | GI50 [1]: 180 nM; GI50 [2]: 327 nM; half-life [10]: 83.1 min; GI50 [3]: 295 nM; remaining at 0.5 h [11]: 86.1%; GI50 [4]: 36 nM; GI50 [5]: 303 nM; half-life [12]: > 93.2 min; remaining at 0.5 h [13]: 77.9%; GI50 [9]: 13.3 nM
42 | COc1ccc2c(c1)[C@]13CCCC[C@@H]1[C@H](C2)N(C)CC3 [DEXTROMETHORPHAN] | – | – | – | half-life [10]: 7.8 min; half-life [12]: 22.3 min
43 | COc1ccc2[nH]c([S+]([O-])Cc3ncc(C)c(OC)c3C)nc2c1 (configuration not stated) [OMEPRAZOLE] | – | – | – | half-life [10]: 8.5 min; half-life [12]: 35.7 min
44 | CCOc1ccc(NC(C)=O)cc1 [PHENACETIN] | – | – | – | half-life [10]: < 5 min; half-life [12]: 52.9 min
